From US12421193B2, “GPR52 modulators and methods of use” (Neurocrine Biosciences, Inc., priority 2020, dated 2025)
Where a name gives a salt, the structure may show the parent alone.

Target: T1, recombinant human GPR52 (Homo sapiens, UniProt Q9Y2T5)
T1 construct: expressed in transfected cells
Test: TR-FRET cAMP assay (LANCE Ultra cAMP Kit), GPR52 activity
Type: cell-based
Details: Flp-In-CHO cells stably expressing recombinant human GPR52; cAMP production, normalized to the positive control
Procedure: TR-FRET cAMP assays were performed using commercially available assay kits (LANCE™ Ultra cAMP Kit). Controls and compounds were solubilized in DMSO using ½ log dilution to generate duplicate 10-point dose response curves in 384-well polypropylene compound plates. Sixty nanoliters of the diluted compounds were transferred into 384-well NBS assay plates and further diluted to 1× with the addition of 2000 cells per well. Flp-In™—CHO cells that stably express recombinant human GPR52.
Cells were harvested with cell stripper and resuspended in Stimulation Buffer (5 mM HEPES, 0.1% bovine serum albumin (BSA), 0.5 mM IBMX, pH 7.4). After thirty minutes incubation at room temperature, detection reagents were added to each well. Plates were then incubated for 30 minutes at room temperature. The LANCE™ Ultra cAMP assay uses time-resolved fluorescence resonance energy transfer (TR-FRET) to detect cAMVP production; this signal was quantified using a Pherastar multi-mode plate reader.
Dose-response curves were generated from the fluorescence counts normalized to the positive control. E EC50 values were obtained using a nonlinear regression curve-fitting program.

T1 sequence (Q9Y2T5 whole entry): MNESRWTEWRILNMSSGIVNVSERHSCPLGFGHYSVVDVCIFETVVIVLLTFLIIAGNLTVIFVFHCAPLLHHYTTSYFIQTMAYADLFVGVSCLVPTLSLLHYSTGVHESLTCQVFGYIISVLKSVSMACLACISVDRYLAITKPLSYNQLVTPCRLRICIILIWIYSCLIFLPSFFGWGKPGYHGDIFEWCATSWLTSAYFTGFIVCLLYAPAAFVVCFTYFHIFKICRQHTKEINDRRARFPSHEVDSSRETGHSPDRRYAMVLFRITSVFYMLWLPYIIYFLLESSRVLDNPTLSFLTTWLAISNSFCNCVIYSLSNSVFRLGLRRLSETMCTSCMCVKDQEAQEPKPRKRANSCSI

| Compound | EC50 [nM] |
| --- | --- |
| Cc1cc(-c2cncc(COc3cc(F)cc(C#N)c3)c2)ccc1C(N)=O [Example 92, 4-[5-(3-cyano-5-fluorophenoxymethyl)pyridin-3-yl]-2-methylbenzamide] | > 1000 |
| Cc1cc(-c2cncc(COc3ccc(F)cc3)c2)ccc1C(N)=O [Example 97, 4-[5-(4-fluorophenoxymethyl)pyridin-3-yl]-2-methylbenzamide] | > 1000 |
| CC(=O)c1ccc(OCc2cc(-c3ccc(C(N)=O)c(C)c3)ccn2)cc1 [Example 86, 4-[2-(4-acetylphenoxymethyl)pyridin-4-yl]-2-methylbenzamide hydrochloride] | < 25 |
| COc1ccc(OCc2ccnc(-c3ccc(C(N)=O)c(C)c3)c2)cc1F [Example 62, 4-[4-(3-fluoro-4-methoxyphenoxymethyl)pyridin-2-yl]-2-methylbenzamide] | < 25 |
| COc1cccc(OCc2ccnc(-c3ccc(C(N)=O)c(C)c3)c2)c1 [Example 39, 4-[4-(3-methoxyphenoxymethyl)pyridin-2-yl]-2-methylbenzamide] | 101 to 1000 |
| Cc1cc(OCc2ccnc(-c3ccc(C(N)=O)c(C)c3)c2)ccc1Cl [Example 28, 4-[4-(4-chloro-3-methylphenoxymethyl)pyridin-2-yl]-2-methylbenzamide] | 101 to 1000 |
| Cc1cc(-c2cc(COc3ccc(C#N)c(F)c3)ccn2)ccc1C(N)=O [Example 4, 4-[4-(4-cyano-3-fluorophenoxymethyl)pyridin-2-yl]-2-methylbenzamide hydrochloride] | 25 to 100 |
| Cc1cc(-c2cc(COc3cccc(C(F)F)c3)ccn2)ccc1C(N)=O [Example 67, 4-{4-[3-(difluoromethyl)phenoxymethyl]pyridin-2-yl}-2-methylbenzamide] | < 25 |
| CCC(=O)c1ccc(OCc2ccnc(-c3ccc(C(N)=O)c(C)c3)c2)cc1 [Example 59, 4-[4-(4-propanoylphenoxymethyl)pyridin-2-yl]2-methylbenzamide] | 101 to 1000 |
| Cc1cc(-c2cc(COc3ccnc(C(F)(F)F)c3)ccn2)ccc1C(N)=O [Example 11, 4-[4-({[2-(trifluoromethyl)pyridin-4-yl]oxy}methyl)pyridin-2-yl]-2-methyl benzamide] | 101 to 1000 |
| Cc1cc(-c2cc(COc3cc(F)cc(F)c3)ccn2)ccc1C(N)=O [Example 15, 4-[4-(3,5-difluorophenoxymethyl)pyridin-2-yl]-2-methylbenzamide] | 25 to 100 |
| COc1cc(OCc2cncc(-c3ccc(C(N)=O)c(C)c3)c2)ccc1C(F)(F)F [Example 101, 4-{5-[3-methoxy-4-(trifluoromethyl)phenoxymethyl]pyridin-3-yl}-2-methylbenzamide] | 101 to 1000 |
| COc1ccc(OCc2cncc(-c3ccc(C(N)=O)c(C)c3)c2)cc1 [Example 98, 4-[5-(4-methoxyphenoxymethyl)pyridin-3-yl]-2-methylbenzamide] | 25 to 100 |
| N#Cc1ccc(OCc2ccnc(-c3ccc(C(N)=O)c(Cl)c3)c2)cc1F [Example 77, 4-[4-(4-cyano-3-fluorophenoxymethyl)pyridin-2-yl]-2-chlorobenzamide] | 25 to 100 |
| Cc1cc(-c2cc(COc3ccc(F)cc3Cl)ccn2)ccc1C(N)=O [Example 45, 4-[4-(2-chloro-4-fluorophenoxymethyl)pyridin-2-yl]-2-methylbenzamide] | 101 to 1000 |
| COc1cc(OCc2ccnc(-c3ccc(C(N)=O)c(C)c3)c2)ccc1C#N [Example 55, 4-[4-(4-cyano-3-methoxyphenoxymethyl)pyridin-2-yl]-2-methylbenzamide] | < 25 |
| Cc1cc(-c2cncc(COc3cc(F)c(F)c(F)c3)c2)ccc1C(N)=O [Example 100, 4-[5-(3,4,5-trifluorophenoxymethyl)pyridin-3-yl]2-methylbenzamide] | 101 to 1000 |
| Cc1cc(-c2cncc(COc3ccc(C#N)c(F)c3)c2)ccc1C(N)=O [Example 91, 4-[5-(4-cyano-3-fluorophenoxymethyl)pyridin-3-yl]-2-methylbenzamide] | > 1000 |
| Cc1cc(-c2cc(COc3ccccc3)ccn2)ccc1C(N)=O [Example 25, 4-[4-(phenoxymethyl)pyridin-2-yl]-2-methylbenzamide] | 101 to 1000 |
| Cc1cc(-c2ccnc(COc3ccc(C(F)(F)F)cc3)c2)ccc1C(N)=O [Example 81, 4-{2-[4-(trifluoromethyl)phenoxymethyl]pyridin-4-yl}-2-methylbenzamide hydrochloride] | < 25 |
| Cc1cc(-c2cc(COc3cccc(S(C)(=O)=O)c3)ccn2)ccc1C(N)=O [Example 5, 4-[4-(3-methanesulfonylphenoxymethyl)pyridin-2-yl]-2-methylbenzamide] | 101 to 1000 |
| COc1ccc(OCc2cncc(-c3ccc(C(N)=O)c(C)c3)c2)cc1OC [Example 96, 4-[5-(3,4-dimethoxyphenoxymethyl)pyridin-3-yl]-2-methylbenzamide] | > 1000 |

| Compound | EC50 [nM] |
| --- | --- |
| CCCc1ccccc1OCc1ccnc(-c2ccc(C(N)=O)c(C)c2)c1 [Example 23, 4-[4-(2-propylphenoxymethyl)pyridin-2-yl]-2-methyl benzamide] | < 25 |
| COc1ccc(OCc2ccnc(-c3ccc(C(N)=O)c(C)c3)c2)c(Cl)c1 [Example 22, 4-[4-(2-chloro-4-methoxyphenoxymethyl)pyridin-2-yl]-2-methylbenzamide] | < 25 |
| COc1ccc2ccc(OCc3ccnc(-c4ccc(C(N)=O)c(C)c4)c3)cc2c1 [Example 21, 4-(4-{[(7-methoxynaphthalen-2-yl)oxy]methyl}pyridin-2-yl)-2-methylbenzamide] | 25 to 100 |
| Cc1cccc(OCc2ccnc(-c3ccc(C(N)=O)c(C)c3)c2)c1 [Example 38, 4-[4-(3-methylphenoxymethyl)pyridin-2-yl]-2-methyl benzamide] | 25 to 100 |
| Cc1cc(-c2cc(COc3ccc([N+](=O)[O-])cc3)ccn2)ccc1C(N)=O [Example 33, 4-[4-(4-nitrophenoxymethyl)pyridin-2-yl]-2-methylbenzamide] | < 25 |
| COc1cc(Cl)cc(OCc2ccnc(-c3ccc(C(N)=O)c(C)c3)c2)c1 [Example 24, 4-[4-(3-chloro-5-methoxyphenoxymethyl)pyridin-2-yl]-2-methylbenzamide] | 25 to 100 |
| Cc1cc(-c2cc(COc3ccc(F)cc3)ccn2)ccc1C(N)=O [Example 12, 4-[4-(4-fluorophenoxymethyl)pyridin-2-yl]-2-methylbenzamide] | 25 to 100 |
| Cc1cc(-c2cc(COc3cccc(F)c3F)ccn2)ccc1C(N)=O [Example 52, 4-[4-(2,3-difluorophenoxymethyl)pyridin-2-yl]-2-methylbenzamide] | 25 to 100 |
| Cc1cc(-c2cc(COc3cc(Cl)cc(Cl)c3)ccn2)ccc1C(N)=O [Example 20, 4-[4-(3,5-dichlorophenoxymethyl)pyridin-2-yl]-2-methylbenzamide] | < 25 |
| Cc1cc(-c2cc(COc3cccc(CC#N)c3)ccn2)ccc1C(N)=O [Example 73, 4-{4-[3-(cyanomethyl)phenoxymethyl]pyridin-2-yl}-2-methylbenzamide] | 101 to 1000 |
| CC(=O)c1ccc(OCc2ccnc(-c3ccc(C(N)=O)c(C)c3)c2)cc1C [Example 13, 4-[4-(4-acetyl-3-methylphenoxymethyl)pyridin-2-yl]-2-methylbenzamide] | < 25 |
| Cc1cc(-c2cc(COc3ccc(C(F)(F)F)cc3)ccn2)ccc1C(N)=O [Example 1, 4-{4-[4-(trifluoromethyl)phenoxymethyl]pyridin-2-yl}2-methyl-benzamide hydrochloride] | 25 to 100 |
| Cc1cc(-c2cc(COc3cc(F)c(F)c(Cl)c3)ccn2)ccc1C(N)=O [Example 54, 4-[4-(3-chloro-4,5-difluorophenoxymethyl)pyridin-2-yl]-2-methylbenzamide] | < 25 |
| Cc1cc(-c2cncc(COc3ccc4cnn(C)c4c3)c2)ccc1C(N)=O [Example 95, 4-(5-{[(1-methyl-1H-indazol-6-yl)oxy]methyl}pyridin-3-yl)-2-methylbenzamide] | > 1000 |
| Cc1cc(-c2cc(COc3ccc(Cl)c(F)c3)ccn2)ccc1C(N)=O [Example 34, 4-[4-(4-chloro-3-fluorophenoxymethyl)pyridin-2-yl]-2-methylbenzamide] | 101 to 1000 |
| CSc1ccc(OCc2ccnc(-c3ccc(C(N)=O)c(C)c3)c2)cc1 [Example 37, 4-{4-[4-(methylsulfanyl)phenoxymethyl]pyridin-2-yl}-2-methyl benzamide] | 25 to 100 |
| Cc1ccc(OCc2ccnc(-c3ccc(C(N)=O)c(C)c3)c2)cc1Cl [Example 18, 4-[4-(3-chloro-4-methylphenoxymethyl)pyridin-2-yl]-2-methylbenzamide] | < 25 |
| Cc1cc(-c2cc(COc3ccc(S(C)(=O)=O)cc3)ccn2)ccc1C(N)=O [Example 6, 4-[4-(4-methanesulfonylphenoxymethyl)pyridin-2-yl]-2-methylbenzamide] | 101 to 1000 |
| CC(=O)c1cccc(OCc2ccnc(-c3ccc(C(N)=O)c(C)c3)c2)c1 [Example 43, 4-[4-(3-acetylphenoxymethyl)pyridin-2-yl]-2-methylbenzamide] | 101 to 1000 |
| Cc1cc(-c2cc(COc3ccc(C#N)cc3)ccn2)ccc1C(N)=O [Example 26, 4-[4-(4-cyanophenoxymethyl)pyridin-2-yl]-2-methylbenzamide] | 25 to 100 |
| CSc1ccccc1OCc1ccnc(-c2ccc(C(N)=O)c(C)c2)c1 [Example 53, 4-{4-[2-(methylsulfanyl)phenoxymethyl]pyridin-2-yl}-2-methyl benzamide] | 25 to 100 |
